In brackets after ≈: the same amount, converted by molar mass. Where two headings read alike, the source gives them in different places.
Key:
C. parvum = test: microbe, parasite or virus in culture; assay type: cell-based, Cryptosporidium parvum
[1] = Aqueous (kinetic) solubility by UHPLC; assay type: physicochemical; conditions: PBS pH 7.4, UHPLC
Protocol: As previously described.(27) […]
samples were prepared by adding 5 µL stock to PBS pH 7.4 (195 µL). This solution was mixed […]
The solubility test samples were […]
vacuum ﬁ ltered (Millipore Multiscreen HTS ﬁ lter, 96-well format) to remove any undissolved […]
material. The ﬁ ltrate was analyzed for dissolved drug compound using a truncated UHPLC […]
methodology. A calibration solution was prepared for each test compound. The 10 mM stock […]
solution was diluted in DMSO to give a 500 µM solution. This was further diluted with 50:50 […]
acetonitrile:water to give a 50 µM solution. Aliquots (0.2, 2.0, and 5.0 µL) of this 50 µM solution were injected onto the UHPLC system, and the areas of the resultant peaks were […]
integrated to produce a calibration line. Aliquots of the test sample ﬁ ltrate (0.4 and 5.0 µL) […]
were injected onto the UHPLC system and the resultant test compound peak areas quantiﬁ ed […]
using the calibration line. […]

PAMPA permeability = assay type: in vitro ADME; conditions: for Papp at 5 h, 10 µM: PAMPA, pH 7.4, pH 7.4; for PAMPA Papp: pH 7.4
Protocol: Solubility test samples were prepared by adding 5 μL stock to PBS pH 7.4 (195 μL). […] […] vacuum […] (Millipore Multiscreen HTS fi lter, 96-well format) to remove any undissolved material. The […] analyzed for dissolved drug compound using a truncated UHPLC methodology. A calibration solution was prepared for each test compound. […] Aliquots of the test sample […] (0.4 and 5.0 μL) were injected onto the UHPLC system and the resultant test compound peak areas quantifi ed […] PAMPA per meability As previously described.(28) The permeability assay was performed using a 96-well precoated BD Gentest PAMPA plate (BD Biosciences). Each well was divided into two chambers: donor and acceptor, separated by a lipid-oil-lipid trilayer constructed in a porous fi lter. […] Stock solutions (5 mM) of the compound were prepared in DMSO. […] The compound dissolved in phosphate buffered saline was added to the donor side of the membrane, and phosphate-buffered saline without the compound was added to the acceptor side. The PAMPA plate was left at room temperature for 5 h then an aliquot (100 μL) was removed from both acceptor and donor compartments and mixed with acetonitrile (80 μL) containing an internal standard: donepezil at 50 ng/mL. The samples were centrifuged (10 min, 5 °C, 3270×g) to sediment lipids and sealed prior to UPLC-MS/MS analysis using a Quattro Premier XE (Waters Corp, USA). Recovery of the compound from donor and acceptor wells was calculated, and data were only accepted when recovery exceeded 70%.

[2] = Biopharmaceutical Classification System (BCS) categorization; assay type: physicochemical; conditions: cut-offs solubility 100 μM, permeability 30 nm/s; Table S1 prints 1-4 for I-IV
Description: To investigate our key parameters, solubility and permeability, we used the Biopharmaceutical Classification System (BCS)([13]) to categorize our tool compounds in a methodical way. […] Restricting either of these properties is likely to have a rate-determining effect on absorption (Class II, purple; Class III, teal). Using the BCS to prioritize compounds for in vivo studies allowed us to systematically examine these individual property combinations and determine whether modulating solubility or permeability influenced compound efficacy. Our hypothesis was that slow absorption due to suboptimal solubility or permeability (i.e. Class II or Class III) would maximize compound concentration at the biophase following a single oral dose.
(A) Schematic of Biopharmaceutical Classification System (BCS). (B) Aqueous solubility and Parallel Artificial Membrane Permeability Assay (PAMPA) measurements of tool compounds from each BCS class. Data are means of two technical replicates. Solubility and permeability cut-offs were defined at 100 μM and 30 nm/s respectively. Raw data reported for all tool compounds in Table S1. (C) NOD SCID Gamma mice were infected with wild type C. parvum. Vehicle, positive control, or tool compound was administered via oral gavage starting day 7 post infection (PI) for 7 days (gray box indicates treatment period). Fecal samples were collected on days indicated by arrows. Fecal samples were collected from individual mice (4 animals per treatment group) and analyzed by qPCR to quantify parasite shedding (oocysts/g). (D) Log reduction in oocyst shedding measured on day 14 PI vs day 21 PI for tool compounds (colored by BCS class) dosed orally at either 30 or 50 mg/kg twice a day (BID) for 7 days in NOD SCID Gamma mice. […] Mean oocyst shedding was determined for each group of n=4 mice, for all compounds tested. Log reduction in oocyst shedding was calculated as log (mean oocysts on day 7) – log (mean oocysts on day 14 or 21).

[3] = Cryptosporidium parvum, HCT-8, 48 h, read-out: C. parvum EC50, co-cultured with HCT-8 cells for 48 hrs
[4] = Cryptosporidium parvum, HCT-8, read-out: C. parvum EC90
[5] = 25 °C, aqueous buffer, kinetic from dmso stock
[6] = calculated from the average EC50 and hill slope, read-out: C. parvum EC90
[7] = co-cultured with HCT-8 cells for 48 hrs, read-out: C. parvum EC50

Structure (SMILES)	EC50 (C. parvum; [3])	EC90 (C. parvum; [4])	solubility at 24 h [1, 5]	Papp at 5 h, 10 µM (PAMPA permeability)	BCS Class [2]	EC90 (C. parvum; [6])	EC50 (C. parvum; [7])	solubility at 24 h [1]	PAMPA Papp (PAMPA permeability)
Nc1cc(F)cc2c(=O)cc(C(=O)NCC3(O)CCCCC3)oc12 [DDD229]	30 nM	80 nM	1.9 µM (≈ 0.635 µg/mL)	1.9 ×10⁻⁶ cm/s	4	–	–	–	–
Nc1nc2c(c(C(F)F)n1)C(=O)N(C[C@@H]1CCC[C@H](C(F)(F)F)C1)C2 [DDD352]	–	–	–	–	2	60 nM	20 nM	32 µM (≈ 11.7 µg/mL)	19.3 ×10⁻⁶ cm/s
Cc1nc(N)nc2c1C(=O)N(C[C@@H]1CCC[C@H](C(F)(F)F)C1)C2 [DDD478]	–	–	–	–	2	40 nM	20 nM	57 µM (≈ 18.7 µg/mL)	13.8 ×10⁻⁶ cm/s
COc1cc(NS(=O)(=O)CCN2CCCC2)c2oc(C(=O)N[C@@H](C)C3CCCCC3)cc(=O)c2c1 [DDD582]	150 nM	370 nM	225 µM (≈ 114 µg/mL)	1.6 ×10⁻⁶ cm/s	3	–	–	–	–
COc1ccc2oc(C(=O)NCC3(O)CCCCC3)cc(=O)c2c1 [DDD583]	140 nM	330 nM	33 µM (≈ 10.9 µg/mL)	11.5 ×10⁻⁶ cm/s	2	–	–	–	–
O=C(NCC1CCCCC1)c1cc(=O)c2cc(F)c(F)c(O)c2o1 [DDD690]	190 nM	370 nM	226 µM (≈ 76.2 µg/mL)	3.2 ×10⁻⁶ cm/s	1	–	–	–	–
O=C(NCC1CCCCO1)c1cc(=O)c2ccc(F)c(O)c2o1 (stereo not shown) [DDD695]	80 nM	180 nM	236 µM (≈ 75.8 µg/mL)	1.1 ×10⁻⁶ cm/s	3	–	–	–	–
O=C(NCC1CCCCC1)c1cc(=O)c2ccc(F)c(O)c2o1 [DDD714]	30 nM	50 nM	377 µM (≈ 120 µg/mL)	4.3 ×10⁻⁶ cm/s	1	–	–	–	–
O=C(NCC1(O)CCCCC1)c1cc(=O)c2ccc(F)c(O)c2o1 [DDD844]	170 nM	460 nM	63 µM (≈ 21.1 µg/mL)	0.17 ×10⁻⁶ cm/s	4	–	–	–	–
Nc1nc2c(c(C(F)(F)F)n1)C(=O)N(CC1CCCC3(CC3)C1)C2 (stereo not shown) [DDD909]	–	–	–	–	2	130 nM	70 nM	14 µM (≈ 4.76 µg/mL)	17.4 ×10⁻⁶ cm/s
O=C(NCC1(F)CCCCC1)c1cc(=O)c2ccc(F)c(O)c2o1 [DDD993]	100 nM	150 nM	234 µM (≈ 78.9 µg/mL)	6.3 ×10⁻⁶ cm/s	1	–	–	–	–
